Legend:
Type in all cases: in vivo
[1] = test system: mice (ICR/JCL, male, 4 weeks old); assay: Activity-increasing action (spontaneous activity in activity wheel); conditions: ratio of effect to that of the same dose of TRH (TRH = 1), cumulative wheel rotations during 3 hours after i.v. administration
Method: (3) Activity-increasing action
Using groups of 10 mice (ICR/JCL, male, 4 weeks old), each mouse was placed in an activity wheel and the activity-increasing action of the medication on the mouse was observed. The cumulative number of rotations caused by the spontaneous activity of the mice during a period of 3 hours following the intravenous administration of compound (I) was compared with the number of revolutions for the control group.
(§1) The relative effects of compound (I) by the above 4 procedures were expressed in terms of the ratios of effect of the same dose of compound (I) as that of TRH with the effects of TRH being taken as unity.

[2] = test system: male mice (ICR/JCL) with one caudate nucleus destroyed; assay: Dopamine activity-potentiating effect (apomorphine-induced turning, caudate nucleus destroyed, reserpine premedication); conditions: ratio of effect to that of the same dose of TRH (TRH = 1), compound given 30 minutes before 0.25 mg/kg apomorphine i.p., reserpine 2 mg/kg i.p. premedication
Method: (4) Dopamine activity-potentiating effect
Using groups of 10 male mice (ICR/JCL) with one of its caudate nuclei destroyed by suction the effects of compound (I) upon the number of turns and the percent incidence of head turning as caused by 0.25 mg/kg of apomorphine (I.P.), i.e., a dopamine-receptor stimulant, under the influence of premedication (18-22 hours) with 2 mg/kg of reserpine (i.p.) were examined.
Thus, compound (I) was given 30 minutes before the administration of apomorphine and the result was compared with that for the untreated (control group). This test was performed to ascertain the potentiating effect of the compound upon the central nervous system action of dopamine, the principle of the test being the same as that of the experiment performed by Everett et al. [Fed. Proc. 23, 198, (1964)] for testing the DOPA synergistic effect which involved the administration of Dl-DOPA.
as §1

[3] = test system: mice (ICR/JCL, male, 4 weeks old); assay: Anaesthesia antagonism (pentobarbital sodium, recovery of righting reflex); conditions: ratio of effect to that of the same dose of TRH (TRH = 1), 55 mg/kg pentobarbital sodium i.p., compound i.v. after 10 minutes
[4] = test system: TSH (thyroid stimulating hormone) release; assay: TSH-releasing activity (method of Schally et al.); conditions: ratio of effect to that of the same dose of TRH (TRH = 1); rats
Method: (1) TSH-releasing activity
Using rats, a test was performed in accordance with the method of Schally et al. [J. Biol. Chem. 244, 4077, (1969)].
as §1

NC(=O)[C@@H]1CCCN1C(=O)[C@H](Cc1c[nH]cn1)NC(=O)[C@@H]1CCC(=O)N1 [TRH, L-pyroglutamyl-L-histidyl-L-prolinamide] showed a Spontaneous activity-increasing effect [1] of 1, a Dopamine-potentiating effect [2] of 1 and an Anaesthesia antagonism [3] of 1. It also gave a TSH-releasing effect [4] of 1.

Oct.His.Pip.NH2 [Oct-His-Pip-NH2] showed a Spontaneous activity-increasing effect [1] of 5, a Dopamine-potentiating effect [2] of 4.00 and an Anaesthesia antagonism [3] of 1.57. The TSH-releasing effect [4] was 0.5.
